In patent US8232101B2, “Identification of antigenic peptides from multiple myeloma cells” (Janssen Pharmaceutica N.V., priority 2009, dated 2012):

Tests used:
[1] = test system: T2 cells loaded with individual peptides; test: 51Cr Release Assay for activity of CTL generated with peptide-loaded Drosophila aAPC; assay type: cell-based, human; design: key to CTL Activity: Strong (S); Median (M); Weak (W); None (N); conditions: for Ability to induce CTL in normal donors: truncated and computer predicted peptides; for Induction of CTL in two normal donors: Donor 1 and Donor 2, FIG. 3 and FIG. 4; for CTL Activities Median: number of donors that elicited Median activity over total number of donors; for CTL Activities Median / CTL Activities Strong / CTL Activities Weak / CTL Activities None: T2 targets loaded with individual peptide; for CTL Activities Strong: number of donors that elicited Strong activity over total number of donors; for CTL Activities Weak: number of donors that elicited Weak activity over total number of donors; for CTL Activities None: number of donors that elicited no activity over total number of donors
Experimental: Drosophila aAPC were generated from Schneider S2 cells (S2 cells), which were originally established in 1969 from several hundred Oregon-R (wild type) Drosophila melanogaster (Oregon-R) embryos (American Type Culture Collection (ATCC) CRL-1963) according to published procedures (Schneider, J. Embryol. Exp. Morph. 1972 Vol 27, pp. 353-365), and deposited in the ATCC(CRL10974). S2 cells are grown in commercial Schneider's Drosophila medium supplemented with 10% heat-inactivated fetal bovine serum. In order to generate aAPCs, human complementary DNAs (cDNAs) for HLA-A2.1, B7.1, LFA-3, ICAM-1 and CD70, were individually inserted into the pRmHa-3 vector and S2 cells were transfected using the calcium phosphate precipitation method with a mixture of HLA-A2.1, B7.1, LFA-3, ICAM-1 and CD70 plasmid DNAs (for aAPC clone 1120) and the phshneo plasmid. (see U.S. Pat. No. 6,225,042 regarding construction and use of pRMHa plasmid vectors). The human cDNAs were prepared using standard techniques by reverse transcription-PCR using primers derived from the published sequences for HLA-A2.1 from K562 cells, B7.1 from K562 cells, LFA-3 from HL60 cells, ICAM-1 from K562 cells, and CD70 from HLA-A2.1+LCL cells. K562 cells are a human erythroleukemic cell line, HL60 cells are a promyelocytic leukemia human cell line, and HLA-A2.1+LCL cells are an Epstein-Barr virus (EBV)-transformed lymphoblastoid cell line (LCL). Stably transfected cells were selected by culturing in Schneider's medium containing geneticin. Prior to scale up of the cells, expression of the transfected genes is induced by the addition of CuSO4. The level of expression is assessed by flow cytometry using anti-HLA-A2.1, anti-B7.1, anti-LFA-3, anti-ICAM-1 and CD70 antibodies. For efficient in vitro activation of the CD8+ lymphocytes, greater than 30% of the Drosophila cells must express the HLA-A2.1 molecule. The Drosophila cells regularly express each of the molecules at levels between 70-90%. Drosophila aAPC were washed and then incubated at RT for 4 hours with 10 μM of different combinations of mixed peptides or individual peptides (See e.g. U.S. Pat. Nos. 6,225,042, 6,355,479, 6,362,001 and 6,790,662; U.S. Patent Application Publication Nos. 2009/0017000 and 2009/0004142; and International Publication No. WO2007/103009). Purified human CD8+ T cells from HLA-A2 positive donors were then incubated with peptide-loaded Drosophila APC at 37° C., 5% CO2, for 5 days. Human IL-2 (20 U/ml, R&D Systems) and IL-7 (30 U/ml, R&D Systems) were added at day 5 and the activated CD8+ T cells (CTL) were re-stimulated twice, at day 7 and day 15, with non-CD8 adherent cells in a total peripheral blood mononuclear cell (PBMC) preparation from the same donor in the presence of peptides.
A number of different CTL were generated using CD8+ T cells from different donors and different combinations of mixed peptides, including combinations that contained only one peptide. For example, 24 selected peptides were mixed or used individually to create different combinations of peptide mixtures (PM) or individual peptides (P5 and P14) and produce peptide-loaded Drosophila APC. The resulting peptide-loaded Drosophila APC were incubated with CD8+ T cells from 2 different donors (Donor 1 and Donor 2) to produce 11 different batches of CTL (Donor 1: PM1, PM2, PM3, PM4, and P14; Donor 2: PM1, PM2, PM3, PM4, P5, and P14) (Table 3).
CTL (Effector) activity was measured with a standard chromium (^51Cr) release assay, with T2 cells (Target) loaded with individual peptides and also with a number of tumor cell lines as target cells (Brunner et al., Immunology. 1968 February; 14(2):181-96). The highest Effector (E) Target (T) ratio (E/T) was 50:1, with 1:5 serial dilutions of CTL (Effector) used to produce a dose response. Before the assay, Target cells (T2 cells at 3×10^6 cells/100 ul in 1×PBS with 4% FCS) were labeled by adding 100 ul of ^51Cr (Perkin Elmer) and incubating at 37° C. for 1 hour. […]

[2] = biological target: T1, HLA-A2 molecules in T2 cells (Homo sapiens, UniProt P04439, D140Y/D185E/D98H/E176V/E277Q/G131W/G231S/I119V/I121R/I166T/I218V/L300P/L318F/N151K/N90K/P208A/P217A/Q86G/Q94H/R138H/R169H/T345S); test: HLA-A2 Stabilization Assay (peptide binding, T2 cells, flow cytometry); design: key: Strong (S); Median (M); Weak (W); None (N)
T1 construct: HLA-A2 molecules that are synthesized in a transporter associated with antigen processing (TAP)-deficient cell line, T2; host or cells: T2 cells (TAP-deficient human cell line)
Text: The assay for peptide binding to class I major histocompatibility complex (MHC/HLA-A2) molecules is based on the ability of peptides to stabilize MHC class I, HLA-A2 molecules that are synthesized in a transporter associated with antigen processing (TAP)-deficient cell line, T2 (ATCC® Number: CRL-1992). The extent of stabilization of MHC class I molecules is directly related to the binding affinity of the added peptides (Townsend et al., Cell. 1990 Jul. 27; 62(2):285-95; Andersen et al., Tissue Antigens. 1999 August; 54(2):185-90).
For the assay, T2 cells were plated in 96-well V-bottom plates, 100 ul/well RPMI media, at a density of 1×10^6 cells/ml, with final peptide concentrations of 200 uM, 20 uM, 2 uM, 200 nM, 20 nM, 2 nM, and no peptide as negative control. The cells with peptides were incubated for 18 hours at 26° C., 5% CO2. After 18 hours, the plates were transferred to 37° C., 5% CO2 and incubated for an additional 3 hours. The cells in plate were washed once with FACS buffer (PBS, 2.5% FCS, 1% NaN3) and then stained by adding 1 ul/well FITC-labeled mouse anti-human HLA-A2 antibody (BD Pharmingen, Cat. No. 551285), 1 ul/well PI, and then incubating at 4° C. for 30 minutes. After staining, cells were resuspended in 200 ul of FACS buffer and transferred from 96-well plates to racks of 96 microtubes. Samples were run on a FACScan flow cytometer and the data were analysed by using CellQuest software.
A peptide of Hepatitis B Core protein (HBC) was used as a positive control. The Hepatitis B Core peptide is a potent HLA-A2.1 epitope and consists of residue numbers 18-27 of the core sequence, amino acids […] (SEQ ID NO:73) (Zhang et al. Immunology. 2007, 121(1):105-12).

[3] = T2 targets loaded with computer predicted peptides
[4] = CTL generated with truncated peptides, T2 targets loaded with individual peptides
[5] = truncated versions of P3, P13, P14

| HLA-A2 Binding [2, 5] | Substance | Ability to induce CTL in normal donors [1] | CTL Activity [1, 4] | other results |
| --- | --- | --- | --- | --- |
|  | FQMEQIVYC (listed as Homo sapiens) [Peptide P14-19] | able to induce CTL |  | CTL Activity [1, 3]: M; HLA-A2 Binding ([2]; computer predicted peptides): M |
|  | FVPEVSFEL (listed as Homo sapiens) [Peptide P13-18] | able to induce CTL |  | CTL Activity [1, 3]: M; HLA-A2 Binding ([2]; computer predicted peptides): S |
| W | IDLPGIT (listed as Homo sapiens) [Peptide P14-16] |  | W |  |
| W | IDLPGITR (listed as Homo sapiens) [Peptide P14-14] | able to induce CTL | M |  |
|  | KLHDAIVEV (listed as Homo sapiens) [Peptide P13-17] | able to induce CTL |  | CTL Activity [1, 3]: S; HLA-A2 Binding ([2]; computer predicted peptides): S |
|  | KLHDAIVEVV (listed as Homo sapiens) [Peptide P13-16] |  |  | CTL Activity [1, 3]: W; HLA-A2 Binding ([2]; computer predicted peptides): M |
| W | LIDLPGI (listed as Homo sapiens) [Peptide P14-15] | able to induce CTL | S |  |
| M | LVDLPGM (listed as Homo sapiens) [Peptide P13-13] | able to induce CTL | W |  |
| N | LVLNLLE (listed as Homo sapiens) [Peptide P3-8] | able to induce CTL | M |  |
|  | LVYLGHVIYL (listed as Homo sapiens) [Peptide P3-11] | able to induce CTL |  | CTL Activity [1, 3]: S; HLA-A2 Binding ([2]; computer predicted peptides): W |
|  | NLLELVHLL (listed as Homo sapiens) [Peptide P3-9] | able to induce CTL |  | HLA-A2 Binding ([2]; computer predicted peptides): S |
| M | SLVLNLLEL (listed as Homo sapiens) [Peptide P3] |  | M | Induction of CTL in two normal donors [1]: induced CTL; CTL Activities Median [1]: 1/12; CTL Activities Strong [1]: 5/12; CTL Activities Weak [1]: 4/12; CTL Activities None [1]: 2/12 |
| M | TLIDLPGITRV (listed as Homo sapiens) [Peptide P14] |  | M | Induction of CTL in two normal donors [1]: induced CTL; CTL Activities Median [1]: 1/17; CTL Activities Strong [1]: 14/17; CTL Activities Weak [1]: 1/17; CTL Activities None [1]: 1/17 |
| N | TLVDLP (listed as Homo sapiens) [Peptide P13-10] |  | S |  |
| N | TLVDLPGM (listed as Homo sapiens) [Peptide P13-8] |  | M |  |
| N | TLVDLPGMT (listed as Homo sapiens) [Peptide P13-7] |  |  |  |
| N | TLVDLPGMTK (listed as Homo sapiens) [Peptide P13-6] |  |  |  |
| M | TLVDLPGMTKV (listed as Homo sapiens) [Peptide P13] |  | M | Induction of CTL in two normal donors [1]: induced CTL; CTL Activities Median [1]: 2/13; CTL Activities Strong [1]: 4/13; CTL Activities Weak [1]: 5/13; CTL Activities None [1]: 2/13 |
| N | VDLPGMTK (listed as Homo sapiens) [Peptide P13-12] |  |  |  |
| N | VDLPGMTKV (listed as Homo sapiens) [Peptide P13-2] |  |  |  |
| N | VLNLLEL (listed as Homo sapiens) [Peptide P3-2] |  |  |  |

| Substance | HLA-A2 Binding [2, 5] | Ability to induce CTL in normal donors [1] | CTL Activity [1, 4] | other results |
| --- | --- | --- | --- | --- |
| VDLPGMT (listed as Homo sapiens) [Peptide P13-14] | N |  |  |  |
